Test results taken from US9487511B2, “Cyclopropanamine compound and use thereof” (Takeda Pharmaceutical Company Limited, priority 2014, dated 2016).
Structures can show the parent of a compound that is named as a salt. Where two headings read alike, the source gives them in different places.

Tests used:
human LSD1(172-833) = human LSD1(172-833) (Homo sapiens (Human), UniProt O60341); test: Measurement of LSD1 inhibitory activity (time-resolved fluorescence, biotin-histone H3 mono methylated K4 peptide); assay type: biochemical; conditions: 60 min preincubation with enzyme at room temperature;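 also: after the compound–enzyme step, substrate reaction 5 min at room temperature in Tris-HCl pH 8.0 with BSA and DTT, halted by 2-PCPA, detected with europium anti-histone H3 antibody plus Streptavidin-XL665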
Experimental: A test compound dissolved in DMSO was added by to a reaction solution (50 mM Tris-HCl (pH 8.0), 0.1% BSA, 1 mM DTT) containing LSD1 enzyme, and the mixture was reacted at room temperature for 60 min. […] After reaction at room temperature for 5 min, 2-PCPA solution was added to terminate the reaction. A detection solution (800 mM potassium fluoride, 0.1% BSA) containing europium-labeled anti-histone H3 antibody (Wako Pure Chemical Industries, Ltd.) and Streptavidin-XL665 (Cisbio) was further added, and the mixture was left standing for 60 min. […] The LSD1 inhibitory rate (%) of the test compound was calculated by the following formula. inhibitory rate (%)=(1−(test compound count−blank)÷(control−blank))×100
The count of the LSD1 enzyme reaction mixture under compound non-addition conditions is indicated as control, and the count under compound non-addition and LSD1 enzyme non-addition conditions is indicated as blank. A concentration necessary for achieving 50% inhibitory rate was taken as ICH value.

MAO-B enzyme = MAO-B enzyme (Homo sapiens (Human), UniProt P27338); test: Measurement of MAO-B inhibitory activity (MAO-Glo Assay); assay type: biochemical
Experimental: The MAO-B inhibitory activity evaluation described below followed the protocol of MAO-Glo (registered trademark) Assay of Promega KK.
A test compound dissolved in DMSO was added to a reaction solution (100 mM HEPES (pH 7.5), 5% glycerol, 10% DMSO) containing MAO-B enzyme (Sigma-Aldrich Co. LLC.), and the mixture was reacted at room temperature for 15 min. MAO substrate (Promega KK) was added to start the reaction. After reaction at room temperature for 60 min, Luciferine detection reagent (Promega KK) (50 μL) was added to terminate the reaction. After reaction at room temperature for 20 min with stirring, the luminescence was measured by Envision (PerkinElmer). The MAO-B inhibitory rate (%) of the test compound was calculated by the following formula. inhibitory rate (%)=(1−(test compound count−blank)÷(control−blank))×100
The count of the MAO-B enzyme reaction mixture under compound non-addition conditions is indicated as control, and the count under compound non-addition and MAO-B enzyme non-addition conditions is indicated as blank.

MAO-A enzyme = MAO-A enzyme (Homo sapiens (Human), UniProt P21397); test: Measurement of MAO-A inhibitory activity (MAO-Glo Assay); assay type: biochemical
Experimental: The MAO-A inhibitory activity evaluation described below followed the protocol of MAO-Glo (registered trademark) Assay of Promega KK.
A test compound dissolved in DMSO was added to a reaction solution (100 mM HEPES (pH 7.5), 5% glycerol) containing MAO-A enzyme (Sigma-Aldrich Co. LLC.), and the mixture was reacted at room temperature for 15 min. MAO substrate (Promega KK) was added to start the reaction. After reaction at room temperature for 60 min, Luciferine detection reagent (Promega KK) was added to terminate the reaction. After reaction at room temperature for 20 min with stirring, the luminescence was measured by Envision (PerkinElmer). The MAO-A inhibitory rate (%) of the test compound was calculated by the following formula. inhibitory rate (%)=(1−(test compound count−blank)÷(control−blank))×100
The count of the MAO-A enzyme reaction mixture under compound non-addition conditions is indicated as control, and the count under compound non-addition and MAO-A enzyme non-addition conditions is indicated as blank.

[1] = Evaluation of blood cell number in mouse; assay type: in vivo; conditions: male ICR mice, oral, repeated 7 or 9 days
Experimental: All compounds were repeatedly administered to the mice at a dose of 1 mg/kg, 10 mg/kg or 100 mg/kg (body weight) for 7 or 9 days. One day after the final administration of the compound, the whole blood was collected.
Using Sysmex XT-1800i (Sysmex Corporation), the white blood cell number, red blood cell number, and platelet number in the collected whole blood per unit volume were measured. The influence of each compound on each blood cell number was determined by calculating the number with the mean of each blood cell number of the mouse without administration of the compound (0 mg/kg group), and the mean of each blood cell number in the whole blood of a mouse with the administration of the compound.

MAO-B enzyme, sequence (P27338 whole entry): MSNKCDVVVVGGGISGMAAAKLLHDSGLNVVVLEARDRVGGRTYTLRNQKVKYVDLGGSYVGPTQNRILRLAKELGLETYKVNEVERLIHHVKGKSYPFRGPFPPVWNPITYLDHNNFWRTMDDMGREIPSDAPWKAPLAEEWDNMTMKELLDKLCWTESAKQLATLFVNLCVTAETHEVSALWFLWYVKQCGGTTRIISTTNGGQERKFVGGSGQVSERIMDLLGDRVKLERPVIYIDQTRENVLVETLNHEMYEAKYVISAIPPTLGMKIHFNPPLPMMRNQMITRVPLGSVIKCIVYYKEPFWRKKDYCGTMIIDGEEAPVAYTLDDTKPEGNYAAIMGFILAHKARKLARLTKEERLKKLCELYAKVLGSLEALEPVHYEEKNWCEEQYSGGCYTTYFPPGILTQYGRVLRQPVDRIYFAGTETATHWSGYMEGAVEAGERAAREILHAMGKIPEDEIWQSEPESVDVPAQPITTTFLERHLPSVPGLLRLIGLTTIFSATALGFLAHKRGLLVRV
MAO-A enzyme, sequence (P21397 whole entry): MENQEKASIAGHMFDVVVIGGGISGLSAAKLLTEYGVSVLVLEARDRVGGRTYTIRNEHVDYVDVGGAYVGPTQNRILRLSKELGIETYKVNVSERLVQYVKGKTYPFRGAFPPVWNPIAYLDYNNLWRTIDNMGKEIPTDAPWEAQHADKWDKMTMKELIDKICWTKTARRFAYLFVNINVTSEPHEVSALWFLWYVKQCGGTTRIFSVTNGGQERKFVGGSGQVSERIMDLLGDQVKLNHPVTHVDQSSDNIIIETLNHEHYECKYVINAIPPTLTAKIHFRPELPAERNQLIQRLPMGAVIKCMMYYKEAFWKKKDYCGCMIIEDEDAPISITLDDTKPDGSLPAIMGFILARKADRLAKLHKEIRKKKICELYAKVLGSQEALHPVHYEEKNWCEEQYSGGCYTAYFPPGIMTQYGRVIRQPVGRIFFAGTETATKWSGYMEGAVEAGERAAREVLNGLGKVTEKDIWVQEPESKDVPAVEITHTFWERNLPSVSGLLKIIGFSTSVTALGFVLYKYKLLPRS

SMILES | IC50 (human LSD1(172-833)) [µM] | IC50 (MAO-B enzyme) [µM] | IC50 (MAO-A enzyme) [µM] | other results
O=C(NC1CCC(F)(F)CC1)c1cc2c(c([C@@H]3C[C@H]3NCC3CCOCC3)c1)OCC2 (relative stereo) [Example 12, N-(4,4-difluorocyclohexyl)-7-(trans-2-((tetrahydro-2H-pyran-4-ylmethyl)amino)cyclopropyl)-2,3-dihydro-1-benzofuran-5-carboxamide hydrochloride] | < 0.1 | > 100 | > 100 | –
Cc1nnc(NC(=O)c2cc([C@@H]3C[C@H]3NCC3CCOCC3)cc3ccccc23)s1 (relative stereo) [Example 16, N-(5-methyl-1,3,4-thiadiazol-2-yl)-3-(trans-2-((tetrahydro-2H-pyran-4-ylmethyl)amino)cyclopropyl)-1-naphthamide dihydrochloride] | < 0.1 | > 100 | > 100 | –
Cc1nnc(NC(=O)c2csc([C@@H]3C[C@H]3NCC3CC3)c2)s1 (relative stereo) [Example 23, 5-(trans-2-((cyclopropylmethyl)amino)cyclopropyl)-N-(5-methyl-1,3,4-thiadiazol-2-yl)thiophene-3-carboxamide dihydrochloride] | – | > 100 | > 100 | –
O=C(NC1CCC(F)(F)CC1)c1csc([C@@H]2C[C@H]2NCC2CCOCC2)c1 (relative stereo) [Example 24, N-(4,4-difluorocyclohexyl)-5-(trans-2-((tetrahydro-2H-pyran-4-ylmethyl)amino)cyclopropyl)thiophene-3-carboxamide hydrochloride] | < 0.1 | > 100 | > 100 | –
O=C(NC1CCC(F)(F)CC1)c1csc([C@@H]2C[C@H]2NCC2CC2)c1 (relative stereo) [Example 30, 5-(trans-2-((cyclopropylmethyl)amino)cyclopropyl)-N-(4,4-difluorocyclohexyl)thiophene-3-carboxamide hydrochloride] | < 0.1 | > 100 | > 100 | –
O=C(NC1CCC(F)(F)CC1)c1csc([C@@H]2C[C@H]2NC2CCOCC2)c1 (relative stereo) [Example 31, N-(4,4-difluorocyclohexyl)-5-(trans-2-(tetrahydro-2H-pyran-4-ylamino)cyclopropyl)thiophene-3-carboxamide hydrochloride] | < 0.1 | > 100 | > 100 | –
Cn1cc(NC(=O)c2csc([C@@H]3C[C@H]3NC3CCC3)c2)cn1 (relative stereo) [Example 34, 5-(trans-2-(cyclobutylamino)cyclopropyl)-N-(1-methyl-1H-pyrazol-4-yl)thiophene-3-carboxamide hydrochloride] | < 0.1 | > 100 | > 100 | –
Cc1nnc(NC(=O)c2cc([C@@H]3C[C@H]3NCC3CCOCC3)cs2)s1 (relative stereo) [Example 58, N-(5-methyl-1,3,4-thiadiazol-2-yl)-4-(trans-2-((tetrahydro-2H-pyran-4-ylmethyl)amino)cyclopropyl)thiophene-2-carboxamide hydrochloride] | < 0.1 | > 100 | > 100 | –
Cc1sc([C@@H]2C[C@H]2NCC2CC2)cc1C(=O)NC1CCC(F)(F)CC1 (relative stereo) [Example 65, 5-(trans-2-((cyclopropylmethyl)amino)cyclopropyl)-N-(4,4-difluorocyclohexyl)-2-methylthiophene-3-carboxamide hydrochloride] | < 0.1 | > 100 | 25 | –
Cc1sc([C@@H]2C[C@H]2NCC2CCOCC2)cc1C(=O)NC1CCC(F)(F)CC1 (relative stereo) [Example 66, N-(4,4-difluorocyclohexyl)-2-methyl-5-(trans-2-((tetrahydro-2H-pyran-4-ylmethyl)amino)cyclopropyl)thiophene-3-carboxamide hydrochloride] | < 0.1 | > 100 | 98 | –
Cc1nnc(NC(=O)c2cc([C@@H]3C[C@H]3NCC3CC3)sc2C)s1 (relative stereo) [Example 69, 5-(trans-2-((cyclopropylmethyl)amino)cyclopropyl)-2-methyl-N-(5-methyl-1,3,4-thiadiazol-2-yl)thiophene-3-carboxamide dihydrochloride] | < 0.1 | > 100 | 33 | –
Cc1nnc(NC(=O)c2cc([C@@H]3C[C@H]3NCC3CCOCC3)sc2C)s1 (relative stereo) [Example 70, 2-methyl-N-(5-methyl-1,3,4-thiadiazol-2-yl)-5-(trans-2-((tetrahydro-2H-pyran-4-ylmethyl)amino)cyclopropyl)thiophene-3-carboxamide dihydrochloride] | < 0.1 | 23 | 10 | –
O=C(NC1CCCC1)c1csc(C2CC2NC2CCOCC2)c1 (single isomer, unassigned) [Example 38, hydrochloride] | < 0.1 | > 100 | > 100 | –
O=C(NC1CCCC1)c1csc(C2CC2NC2CCOCC2)c1 (single isomer, unassigned) [Example 39] | < 0.1 | > 100 | 23 | –
Cc1nnc(NC(=O)c2csc(C3CC3NCC3CCOCC3)c2)s1 (single isomer, unassigned) [Example 40, dihydrochloride] | < 0.1 | > 100 | – | IC50 (MAO-A enzyme; dihydrochloride): > 100 µM
Cc1nnc(NC(=O)c2csc(C3CC3NCC3CCOCC3)c2)s1 (single isomer, unassigned) [Example 41, dihydrochloride] | < 0.1 | – | – | IC50 (MAO-A enzyme; dihydrochloride): 67 µM
NC1CCC(N[C@@H]2C[C@H]2c2cc(C(=O)NC3CCC(F)(F)CC3)cs2)CC1 (single isomer, unassigned) [Example 45, dihydrochloride] | < 0.1 | > 100 | > 100 | –
Cc1nnc(NC(=O)c2cc([C@@H]3C[C@H]3NCC3CCOCC3)cs2)s1 [Example 72, N-(5-methyl-1,3,4-thiadiazol-2-yl)-4-((1S,2R)-2-((tetrahydro-2H-pyran-4-ylmethyl)amino)cyclopropyl)thiophene-2-carboxamide hydrochloride] | < 0.1 | – | – | –
Cc1nnc(NC(=O)c2cc([C@@H]3C[C@H]3NCC3CC3)c(C)s2)s1 [Example 95, 4-((1S,2R)-2-((cyclopropylmethyl)amino)cyclopropyl)-5-methyl-N-(5-methyl-1,3,4-thiadiazol-2-yl)thiophene-2-carboxamide fumarate] | – | – | – | Platelets, Mean ([1]; 1 mg/kg): 1352 10^3 cells; Red blood cells, Mean ([1]; 1 mg/kg): 888 10^4 cells; White blood cells, Mean ([1]; 1 mg/kg): 422 10 cells; Platelets, Mean ([1]; 10 mg/kg): 1482 10^3 cells; Red blood cells, Mean ([1]; 10 mg/kg): 898 10^4 cells; White blood cells, Mean ([1]; 10 mg/kg): 408 10 cells
Cc1sc(C(=O)Nc2cnn(C)c2)cc1[C@@H]1C[C@H]1NC1CCC1 [Example 104, 4-((1S,2R)-2-(cyclobutylamino)cyclopropyl)-5-methyl-N-(1-methyl-1H-pyrazol-4-yl)thiophene-2-carboxamide dihydrochloride] | – | – | – | Platelets, Mean ([1]; 1 mg/kg, dihydrochloride): 1370 10^3 cells; Red blood cells, Mean ([1]; 1 mg/kg, dihydrochloride): 870 10^4 cells; White blood cells, Mean ([1]; 1 mg/kg, dihydrochloride): 373 10 cells; Platelets, Mean ([1]; 10 mg/kg, dihydrochloride): 1404 10^3 cells; Red blood cells, Mean ([1]; 10 mg/kg, dihydrochloride): 872 10^4 cells; White blood cells, Mean ([1]; 10 mg/kg, dihydrochloride): 397 10 cells
